Holding throughout (assay type): functional
One assay relates to MDA-MB-468. The experiment in a line: Cytotoxicity against human MDA-MB-468 cells by SRB assay. A general note: Sulforhodamine B stains cellular protein and so reports cell mass.
The subject of the next assay is MDA-MB-435. The experiment in a line: Cytotoxicity against human MDA-MB-435 cells by SRB assay. To be noted: for CC50: read-out: LC50 (the source's name).
A further assay deals with SF-295. The experiment in a line: Cytotoxicity against human SF295 cells by SRB assay.
A further assay has as its system NCI-H522. The experiment in a line: Cytotoxicity against human NCI-H522 cells by SRB assay.
The subject of another assay is SR. The experiment in a line: Cytotoxicity against human SR cells by SRB assay.
For a further assay, the system named is RPMI-8226. The experiment in a line: Cytotoxicity against human RPMI8226 cells by SRB assay.
A further assay concerns MOLT-4. The experiment in a line: Cytotoxicity against human MOLT4 cells by SRB assay.
In another assay the test system is HL-60(TB). The experiment in a line: Cytotoxicity against human HL-60(TB) cells by SRB assay.
The next assay relates to CCRF-CEM. The experiment in a line: Cytotoxicity against human CCRF-CEM cells by SRB assay.

As for `Cc1ccc(Cl)cc1NC(=O)c1sc2nc3c(cc2c1N)C(=O)CCC3`, the GI50 in the assay on MDA-MB-468 stood at 2.74 µM; with MDA-MB-435, 1.1 µM; in the assay on SF-295, 2.33 µM; in the assay with NCI-H522, 2.17 µM; in the assay on SR, 3.5 µM; in the assay on RPMI-8226, 3.5 µM. The GI50 in the assay on MOLT-4, in the assay with HL-60(TB) and in the assay on CCRF-CEM was 3.5 µM throughout. For the same molecule, the TGI with MDA-MB-468 was 8.76 µM; with MDA-MB-435 it was 5.04 µM; in the assay on SF-295, 7.44 µM; in the assay on NCI-H522, 4.95 µM; in the assay on SR, over 100 µM; in the assay with RPMI-8226, over 100 µM. Moreover, the TGI with MOLT-4, with HL-60(TB) and in the assay on CCRF-CEM was over 100 µM in each case.
Turning to `Nc1c(C(=O)Nc2ccccc2F)sc2nc3c(cc12)C(=O)CCC3`, the GI50 with MDA-MB-468 was 0.238 µM; in the assay on MDA-MB-435 it was 0.196 µM; in the assay with SF-295, 0.57 µM; in the assay on NCI-H522, 0.44 µM; in the assay on SR it was 1.8 µM; with RPMI-8226, 1.8 µM. Besides, the GI50 with MOLT-4, in the assay with HL-60(TB) and in the assay on CCRF-CEM was 1.8 µM throughout. For the same molecule, the TGI in the assay with MDA-MB-468 was 0.952 µM; in the assay with MDA-MB-435, 0.567 µM; in the assay with SF-295 it was 85.7 µM; in the assay on NCI-H522 it was 3.31 µM; with SR it was over 100 µM; in the assay on RPMI-8226 it was over 100 µM. The TGI in the assay on MOLT-4, with HL-60(TB) and in the assay with CCRF-CEM was over 100 µM in each case. In the assay on MDA-MB-435, the CC50 is 8 µM.
Take `Cc1ccccc1NC(=O)c1sc2nc3c(cc2c1N)C(=O)CCC3`: the GI50 in the assay on MDA-MB-468 is 0.529 µM; in the assay with MDA-MB-435, 0.331 µM; in the assay on SF-295, 1.33 µM; in the assay on NCI-H522 it was 0.895 µM; in the assay with SR, 4.3 µM; with RPMI-8226, 4.3 µM. The GI50 with MOLT-4, with HL-60(TB) and with CCRF-CEM was 4.3 µM each time. Moreover, the TGI with MDA-MB-468 was 6.21 µM; with MDA-MB-435, 1.98 µM; in the assay with NCI-H522 it was 3.5 µM; with SR it was over 100 µM; in the assay on RPMI-8226, over 100 µM; with MOLT-4, over 100 µM. Moreover, the TGI in the assay on HL-60(TB) and in the assay on CCRF-CEM was over 100 µM throughout.
As for `Nc1c(C(=O)Nc2ccccc2)sc2nc3c(cc12)C(=O)CCC3`, the GI50 with MDA-MB-468 came to 0.15 µM; with MDA-MB-435 it was 0.089 µM; in the assay with SF-295, 0.372 µM; in the assay with NCI-H522 it was 0.15 µM; with SR it was 0.52 µM; in the assay on RPMI-8226, 0.52 µM. For the same molecule, the GI50 in the assay on MOLT-4, in the assay on HL-60(TB) and in the assay on CCRF-CEM was 0.52 µM throughout. Further, the TGI in the assay on MDA-MB-468 was 0.583 µM; in the assay with MDA-MB-435, 0.297 µM; in the assay on NCI-H522 it was 0.402 µM; in the assay on SR, over 100 µM; in the assay on RPMI-8226 it was over 100 µM; with MOLT-4, over 100 µM. The TGI in the assay on HL-60(TB) and in the assay with CCRF-CEM was over 100 µM throughout. The LC50 in the assay on NCI-H522 came to 68 µM.
For `Cc1cc(C)c(NC(=O)c2sc3nc4c(cc3c2N)C(=O)CCC4)c(C)c1`, the GI50 in the assay with MDA-MB-468 was found to be 0.596 µM; in the assay with MDA-MB-435 it was 0.267 µM; in the assay on SF-295, 0.399 µM; in the assay on NCI-H522, 0.36 µM; in the assay with SR, 3.6 µM; in the assay on RPMI-8226, 3.6 µM. The GI50 in the assay with MOLT-4, in the assay on HL-60(TB) and with CCRF-CEM was 3.6 µM each time. Further, the TGI with MDA-MB-468 was 3.65 µM; in the assay on MDA-MB-435, 1.16 µM; in the assay on NCI-H522, 2.01 µM; in the assay with SR it was over 100 µM; in the assay with RPMI-8226, over 100 µM; with MOLT-4 it was over 100 µM. Also, the TGI with HL-60(TB) and in the assay with CCRF-CEM was over 100 µM each time.
Take `Nc1c(C(=O)Nc2cccc(Cl)c2)sc2nc3c(cc12)C(=O)CCC3`: the GI50 in the assay on MDA-MB-468 was determined as 0.045 µM; in the assay on MDA-MB-435, 0.045 µM; in the assay with SF-295, 0.213 µM; in the assay on NCI-H522 it was 0.19 µM; with SR, 0.2 µM; with RPMI-8226, 0.2 µM. Moreover, the concentration for 50% growth inhibition (GI50) in the assay on MOLT-4, in the assay with HL-60(TB) and with CCRF-CEM was 0.2 µM throughout. Further, the TGI was 0.622 µM in the assay with MDA-MB-468; 0.27 µM in the assay on MDA-MB-435; 0.781 µM in the assay on SF-295; 0.788 µM in the assay with NCI-H522; over 100 µM in the assay on SR; over 100 µM in the assay with RPMI-8226. Moreover, the TGI with MOLT-4, in the assay with HL-60(TB) and in the assay on CCRF-CEM was over 100 µM each time. The CC50 with MDA-MB-435 was 0.9 µM.

For orientation: GI50 means the concentration that inhibits growth by half. Usually TGI stands for the concentration giving total growth inhibition. What is called LC50 is the concentration lethal to half of the exposed cells or organisms. High values mean lower toxicity, low ones greater toxicity.
